Drawing on patent US20230348426A1, “OXOPYRROLIDINE FPR2 AGONISTS” (Bristol-Myers Squibb Company, priority 2020, published 2023), this text covers EC50 for 18 molecules.

For one assay, the target named is human FPR2 (Homo sapiens (Human), UniProt P25090). Kind of assay: FPR2 cyclic adenosine monophosphate (cAMP) assay. It is filed as cell-based. The note with it: CHO cells overexpressing human FPR2; forskolin 5 µM; inhibition of cAMP production; read-out: hFPR2 cAMP2 EC50. The essentials:
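Inhibition of forskolin-driven (5 µM) cAMP, with 200 µM IBMX, measured in human FPR2-expressing CHO cells, 2,000 per well, 30 min at room temperature; compounds tested 0.020 nM to 100 µM in 1% DMSO. HTRF 665/590 ratio converted to cAMP via calibration curve, then 4-parameter fit.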
(In general: Changes in cAMP serve as a functional read-out for many G protein-coupled receptors.)

The target in a further assay is human FPR1 (Homo sapiens (Human), UniProt P21462). The assay is described as follows: FPR1 cyclic adenosine monophosphate (cAMP) assay. It is filed as cell-based. The conditions noted are these: CHO cells overexpressing human FPR1; forskolin 10 µM; inhibition of cAMP production; read-out: hFPR1 cAMP EC50. In outline:
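Human FPR1-expressing CHO cells were used at 4,000 per well, with compound at 0.020 nM–100 µM in 1% DMSO. Potency came from a 4-parameter logistic fit.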

Chain of human FPR2 (P25090 whole entry): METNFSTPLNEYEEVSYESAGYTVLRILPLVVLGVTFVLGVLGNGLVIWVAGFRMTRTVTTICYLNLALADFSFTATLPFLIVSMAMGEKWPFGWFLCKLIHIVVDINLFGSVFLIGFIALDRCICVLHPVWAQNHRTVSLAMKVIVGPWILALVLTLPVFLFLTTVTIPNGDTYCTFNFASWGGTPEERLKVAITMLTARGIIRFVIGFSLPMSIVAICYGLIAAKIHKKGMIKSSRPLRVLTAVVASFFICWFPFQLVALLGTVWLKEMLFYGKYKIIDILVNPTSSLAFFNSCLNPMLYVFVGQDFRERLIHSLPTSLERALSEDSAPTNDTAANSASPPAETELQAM
Chain of human FPR1 (P21462 whole entry): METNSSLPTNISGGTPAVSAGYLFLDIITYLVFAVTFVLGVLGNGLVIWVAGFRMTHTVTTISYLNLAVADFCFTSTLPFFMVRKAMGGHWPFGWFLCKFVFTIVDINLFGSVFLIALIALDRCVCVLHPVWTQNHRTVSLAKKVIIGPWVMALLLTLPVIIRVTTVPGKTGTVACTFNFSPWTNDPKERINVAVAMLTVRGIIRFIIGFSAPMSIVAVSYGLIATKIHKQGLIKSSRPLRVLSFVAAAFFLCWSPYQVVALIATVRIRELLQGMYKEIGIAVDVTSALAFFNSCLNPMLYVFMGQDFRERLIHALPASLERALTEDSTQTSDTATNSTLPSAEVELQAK

In the case of `COc1cc(F)c([C@@H]2CN(c3nccc(NCCS(C)(=O)=O)c3C(F)(F)F)C(=O)[C@H]2NC(=O)c2ccc(Cl)cc2)c(F)c1` [Example 451], the EC50 on human FPR2 was found to be 2 nM; at human FPR1 it was 1900 nM.

Consider `COCC(CO)n1nccc(N2C[C@@H](c3c(F)cc(OC)cc3F)[C@H](NC(=O)c3ccc(OC(F)(F)F)cc3)C2=O)c1=O` (stereo partly drawn) [Example 452], for which the EC50 was found to be 9.6 nM at human FPR2 and 4 nM at human FPR1.

Regarding `COc1cc(F)c([C@@H]2CN(c3c(C)ccn(C(F)(F)CO)c3=O)C(=O)[C@H]2NC(=O)c2ccc(OC(F)F)cc2)c(F)c1` [Example 454], the EC50 at human FPR2 worked out at 4.4 nM; at human FPR1, 17 nM.

In the case of `COc1cc(F)c([C@@H]2CN(c3c(C)ccn(CC#N)c3=O)C(=O)[C@H]2NC(=O)c2ccc(OC(F)(F)F)cc2)c(F)c1` [Example 455], the EC50 stood at 2.9 nM at human FPR2 and 10 nM on human FPR1.

On to `COc1cc(F)c([C@@H]2CN(c3c(C)ccn(CC4CCOCC4)c3=O)C(=O)[C@H]2NC(=O)c2ccc(OC(F)(F)F)cc2)c(F)c1` [Example 456], for which the EC50 at human FPR2 came to 2.8 nM; at human FPR1, 1 nM.

Turning to `COc1cc(F)c([C@@H]2CN(c3c(C)ccn(CC4CCOCC4)c3=O)C(=O)[C@H]2NC(=O)c2ccc(OC(F)F)cc2)c(F)c1` [Example 457], the EC50 turned out to be 3.2 nM at human FPR2 and 2 nM on human FPR1.

Consider `COc1cc(F)c([C@@H]2CN(c3c(C)ccn(C4CCC4)c3=O)C(=O)[C@H]2NC(=O)c2ccc(OC(F)(F)F)cc2)c(F)c1` [Example 458], for which the values for the EC50 on human FPR2 and at human FPR1 were 1.2 nM and 0.8 nM, respectively.

As to `COc1ccc([C@@H]2CN(c3c(C)ccn(CC4CC4)c3=O)C(=O)[C@H]2NC(=O)c2ccc(OC(F)F)cc2)cc1` [Example 459], the EC50 at human FPR2 turned out to be 0.9 nM; at human FPR1, 0.2 nM.

`CCn1c2c(cc(N3C[C@@H](c4c(F)cc(OC)cc4F)[C@H](NC(=O)c4ccc(OC(F)F)cc4)C3=O)c1=O)CCCC2` [Example 460]: the EC50 came to 1.4 nM at human FPR2 and 1 nM on human FPR1.

With `COCCn1c2c(cc(N3C[C@@H](c4c(F)cc(OC)cc4F)[C@H](NC(=O)c4ccc(Cl)cc4)C3=O)c1=O)CCCC2` [Example 461], the EC50 on human FPR2 amounted to 3.7 nM; on human FPR1, 3 nM.

For the molecule `COc1cc(F)c([C@@H]2CN(c3c(C)ccn(C4COC4)c3=O)C(=O)[C@H]2NC(=O)c2ccc(OC(F)(F)F)cc2)c(F)c1` [Example 463], the EC50 on human FPR2 worked out at 3.9 nM; on human FPR1, 6 nM.

On to `CCn1c2c(cc(N3C[C@@H](c4c(F)cc(OC)cc4F)[C@H](NC(=O)c4ccc(Cl)cc4)C3=O)c1=O)CCCC2` [Example 464], for which the concentration for a half-maximal effect (EC50) at human FPR2 came to 1.6 nM; on human FPR1, 4 nM.

As to `COc1ccc([C@@H]2CN(c3cccn(CC(O)C(F)(F)F)c3=O)C(=O)[C@H]2NC(=O)c2ccc(OC(F)F)cc2)c(F)c1` (stereo partly drawn) [Example 465], the EC50 at human FPR2 stood at 2.9 nM; at human FPR1 it was 13 nM.

As to `COc1cc(F)c([C@@H]2CN(c3ccnn(CC(O)C(F)(F)F)c3=O)C(=O)[C@H]2NC(=O)c2ccc(OC(F)(F)F)cc2)c(F)c1` (stereo partly drawn) [Example 466], the EC50 at human FPR2 is 3 nM; at human FPR1, 4 nM.

In the case of `COc1cc(F)c([C@@H]2CN(c3cncn(CC(C)O)c3=O)C(=O)[C@H]2NC(=O)c2ccc(OC(F)F)cc2)c(F)c1` (stereo partly drawn) [Example 467], the EC50 on human FPR2 is 1.8 nM; at human FPR1 it was 1500 nM.

With `COc1cc(F)c([C@@H]2CN(c3ccnn(CCC(F)(F)F)c3=O)C(=O)[C@H]2NC(=O)c2ccc(OC(F)F)cc2)c(F)c1` [Example 468], the results for the EC50 at human FPR2 and on human FPR1 were 2.1 nM and 18 nM, respectively.

With `COc1cc(F)c([C@@H]2CN(c3c(C)ccn(CCS(C)(=O)=O)c3=O)C(=O)[C@H]2NC(=O)c2ccc(OC(F)(F)F)cc2)c(F)c1` [Example 469], the 50% effective concentration (EC50) on human FPR2 came out at 1.4 nM; at human FPR1 it was 2 nM.

For the molecule `COc1cc(F)c([C@@H]2CN(c3c(C)ccn(CCS(C)(=O)=O)c3=O)C(=O)[C@H]2NC(=O)c2ccc(OC(F)F)cc2)c(F)c1` [Example 470], the results for the EC50 on human FPR2 and on human FPR1 were 1.9 nM and 8 nM, respectively.

One may read the EC50 as the midpoint of the concentration-response curve.
